From patent US5324739A (priority 1993, dated 1994)

What was measured:
[1] = system: brine shrimp; format: in vivo; details: see Example 1
Protocol: In this Example, various concentrations of the organic extract of Lyngbya majuscula were tested using a brine-shrimp assay. The assay was performed according to the following procedure: 24 hours before performing the assay, brine shrimp eggs were hatched in sea water (made by dissolving INSTANT OCEAN dry concentrate in water according to manufacturer's directions). A volume of the organic extract of Lyngbya majuscula was placed in a 50-mL conical flask (weighed beforehand to obtain the tare weight) and the solvent was evaporated. The flask was re-weighed and the tare weight subtracted to yield the weight of non-volatile residue from the extract. The residue was dissolved with a suitable volume of ethanol to yield a concentration of 0.1 mg residue per μL ethanol. Four vials were prepared, the first containing 50 μL of the ethanol solution, the second containing 10 μL of the ethanol solution plus 40 μL ethanol, the third containing 2.5 μL of the ethanol solution plus 47.5 μL ethanol, and the fourth containing none of the solution and 50 μL ethanol (serving as a negative control). Between 10 and 15 live brine shrimp were placed in each vial and stored for 24 hours, after which the number of live and dead shrimp were tallied for each vial. […]

[2] = system: MRC-5 cells; assay: cytotoxicity / antiproliferative assay on dividing and confluent MRC-5 cells (MTT); format: cell-based, human; details: proliferating vs quiescent cells
Protocol: Evaluation of the antiproliferative activity of fractions using MRC-5 cells in culture was performed using the following procedure: Human embryonic lung (MRC-5) cells were obtained from the American Type Culture Collection. The cells were grown in Eagle's Minimum Essential Medium with Earle's salts (EMEM, JRH Bioscience) supplemented with 10% fetal calf serum (Hyclone), 0.75 mg/mL NaHCO3, 100 units of penicillin per mL, and 100 μg streptomycin per mL (Gibco Labs). As in the AB1 cell assay, cell growth and survival was determined calorimetrically, based upon the uptake and reduction of the tetrazolium salt, MTT, to a blue-colored formazan product by mitochondrial enzymes of living cells. The effect of the fractions, as potential inhibitors at different stages of the cell cycle, was determined by performing the assay using both resting and rapidly dividing cells. […] At the end of the incubation, the medium was aspirated, the cells were rinsed once using PBS, and 1.0 mg/mL of MTT was added to each well. The plates were incubated with MTT for three hours, after which the MTT was aspirated and isopropanol was added to dissolve any formazen crystals that formed. Plates were "read" on an Elisa reader at 570 nm (principal wavelength) and again at 650 wavelength (reference wavelength) to correct for non-specific background absorbance, using a Thermomax Spectrophotometer (Molecular Devices). […]

[3] = system: MRC-5 cells; AB1 cells; assay: activity of second-stage fractions and of the separated isomers (FIG. 1; test not stated); format: cell-based; details: Curacin A vs Curacin B
Protocol: Elution in the second stage was performed within a much smaller range of increasingly greater amounts of ethyl acetate in hexane (1 to 5% in 0.5 to 1.0% increments). […] Fractions 5-9 were pooled and, as such, represented about 200 mg total.
Since the Curacin A and Curacin B compounds were […] to CH2 N2, methylation offered a way to purify the compound from the contaminants in the extract. After reaction of the extract with CH2 N2, the extract was subjected to high performance liquid chromatography (HPLC) in an effort to separate the two isomers. […]
Evaluation of the antiproliferative activity of fractions using MRC-5 cells in culture was performed using the following procedure: Human embryonic lung (MRC-5) cells were obtained from the American Type Culture Collection. […] As in the AB1 cell assay, cell growth and survival was determined calorimetrically, based upon the uptake and reduction of the tetrazolium salt, MTT, to a blue-colored formazan product by mitochondrial enzymes of living cells. The effect of the fractions, as potential inhibitors at different stages of the cell cycle, was determined by performing the assay using both resting and rapidly dividing cells. […]

[4] = system: proliferating cells; assay: administration of formulations containing Curacins A and B to mice (data not shown); format: in vivo; details: various direct methods and oral
Excerpt: In addition, these tests indicate that Curacins A and B can be administered to animal subjects using dosage protocols that are substantially similar to such protocols used with other antimitotics.

[5] = system: spleen lymphocytes; assay: ex vivo experiments on spleen lymphocytes after administration to mice; details: 1-10 mg/kg
[6] = system: 60 different human tumor cell lines; details: for cytotoxicity: cancer cell lines
Protocol: In these examples, an extract of Lyngbya majuscula containing Curacins A and B was subjected to the drug screening procedure employed by the National Cancer Institute for the screening of drugs having possible anticancer utility.
The screening procedure employed a diverse, disease-oriented panel consisting of 60 different human tumor cell lines organized into seven disease-specific subpanels. The extract was tested over a wide range of concentrations for cytotoxic or growth-inhibitory effects against each cell line comprising the panel. The seven subpanels represented diverse histologies (leukemias, melanomas, and tumors of the lung, colon, kidney, ovary, and brain).
The extract was tested over two days in which the cells were continuously exposed to five log10 -spaced concentrations of the drug starting at 10^-4 μg/mL. The tests produced 60 individual dose-response curves, one for each cell line (i.e., one for each example).
To produce data for the mean-graph format shown in FIG. 7, a concentration of the extract that produced a target level response was calculated for each cell line. Three different response parameters were evaluated. The first response parameter was the "GI50," which is the concentration of the extract that produced an apparent 50% decrease in the number of tumor cells relative to the appropriate control (not exposed to extract) at the end of the incubation period. The second response parameter was the "TGI," which is the concentration at which the number of tumor cells remaining at the end of the incubation period substantially equaled the number of tumor cells existing at the start of the incubation period. The third response parameter was the "LC50," which is the concentration of extract that caused an apparent 50 percent reduction in the number of tumor cells relative to the appropriate control (not exposed to extract) at the start of the incubation period.
In a typical GI50 mean graph (e.g., left graph of FIG. 7), the relative position of the vertical reference line along the horizontal concentration axis is obtained by averaging the negative log10 GI50 values for all the cell lines tested against the extract. Horizontal bars are then plotted for the individual negative log10 GI50 values of each cell line relative to the vertical reference line. […] The length of a bar is proportional to the difference between the log10 GI50 value obtained with the particular cell line and the mean (represented by the vertical reference line).
COMPARE is used to rank the similarity of the mean graph profile of the sample extract or drug to the patterns of all the other compounds in the NCI screening database or a defined subset thereof.

SMILES | effectiveness for reducing a population of representative arthropods (brine shrimp) [1] | activity against proliferating versus quiescent cells [2] | activity of Curacin A relative to Curacin B (times more active) [3] | bioavailability [4] | effectiveness in vivo against proliferating cells [4] | effect against spleen lymphocytes [5] | mode of action indicated by COMPARE analysis ([6]; COMPARE data, Tables 1 and 2) | cytotoxicity [6] | antiproliferative activity against living cells in culture ([6]; living cells in culture) | antimitotic activity ([6]; various tests)
C=CC[C@@H](CC/C(C)=C/C=C/CC/C=C\[C@@H]1CSC([C@@H]2C[C@@H]2C)=N1)OC [Curacin A] | effectiveness | more active against proliferating cells than against quiescent cells | about 10^2 | bioavailable | effective in vivo against proliferating cells | substantial effect against spleen lymphocytes | functions as an antimitotic | cytotoxic | substantial antiproliferative activity | substantial antimitotic activity
C=CC[C@@H](CC/C(C)=C/C=C\CC/C=C\[C@@H]1CSC([C@@H]2C[C@@H]2C)=N1)OC [Curacin B] | – | more active against proliferating cells than against quiescent cells | – | bioavailable | effective in vivo against proliferating cells | substantial effect against spleen lymphocytes | – | cytotoxic | – | –
